Like-named read-outs stand apart in the source and are kept apart here.
Columns and labels:
Experiment in all cases: Kinase binding screen
ACVR1B = ACVR1B (Homo sapiens (Human), UniProt P36896); details: read-out: Percent Control at 100 nM Compound Concentration
ACVR2A = ACVR2A (Homo sapiens (Human), UniProt P27037); details: read-out: Percent Control at 100 nM Compound Concentration
ACVR2B = ACVR2B (Homo sapiens (Human), UniProt Q13705); details: read-out: Percent Control at 100 nM Compound Concentration
Sequence of ACVR2B (Q13705 19-512): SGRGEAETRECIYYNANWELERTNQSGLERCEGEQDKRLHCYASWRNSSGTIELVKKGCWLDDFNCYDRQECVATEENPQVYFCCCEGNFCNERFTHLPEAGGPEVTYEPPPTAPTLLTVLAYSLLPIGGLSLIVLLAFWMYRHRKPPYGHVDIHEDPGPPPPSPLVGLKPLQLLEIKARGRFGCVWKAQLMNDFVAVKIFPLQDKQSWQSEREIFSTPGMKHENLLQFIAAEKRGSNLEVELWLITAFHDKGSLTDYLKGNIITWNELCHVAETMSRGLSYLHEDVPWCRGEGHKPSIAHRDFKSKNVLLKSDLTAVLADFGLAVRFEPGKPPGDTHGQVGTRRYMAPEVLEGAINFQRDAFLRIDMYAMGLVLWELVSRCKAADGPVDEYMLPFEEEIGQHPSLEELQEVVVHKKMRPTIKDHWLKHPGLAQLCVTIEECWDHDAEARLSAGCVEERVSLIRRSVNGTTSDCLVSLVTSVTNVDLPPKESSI

ALK = ALK (Homo sapiens (Human), UniProt Q9UM73); details: read-out: Percent Control at 100 nM Compound Concentration
BTK = BTK (Homo sapiens (Human), UniProt Q06187); details: read-out: Percent Control at 100 nM Compound Concentration
CDC2L2 = CDC2L2 (Homo sapiens (Human), UniProt Q9UQ88); details: read-out: Percent Control at 100 nM Compound Concentration
CSNK1E = CSNK1E (Homo sapiens (Human), UniProt P49674); details: read-out: Percent Control at 100 nM Compound Concentration
Sequence of CSNK1E (P49674 whole entry): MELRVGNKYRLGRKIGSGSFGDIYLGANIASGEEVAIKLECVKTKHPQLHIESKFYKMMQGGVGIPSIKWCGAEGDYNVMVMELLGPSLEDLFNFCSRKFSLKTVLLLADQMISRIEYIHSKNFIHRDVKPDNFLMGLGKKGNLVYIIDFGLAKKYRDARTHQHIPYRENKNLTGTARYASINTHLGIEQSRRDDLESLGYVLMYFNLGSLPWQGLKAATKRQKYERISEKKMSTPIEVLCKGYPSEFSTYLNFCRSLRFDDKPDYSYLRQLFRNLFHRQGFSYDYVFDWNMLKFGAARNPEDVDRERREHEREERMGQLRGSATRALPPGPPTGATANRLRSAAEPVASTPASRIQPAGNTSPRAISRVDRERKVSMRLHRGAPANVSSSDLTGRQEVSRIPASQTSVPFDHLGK

CSNK1G3 = CSNK1G3 (Homo sapiens (Human), UniProt Q9Y6M4); details: read-out: Percent Control at 100 nM Compound Concentration
Sequence of CSNK1G3 (Q9Y6M4 whole entry): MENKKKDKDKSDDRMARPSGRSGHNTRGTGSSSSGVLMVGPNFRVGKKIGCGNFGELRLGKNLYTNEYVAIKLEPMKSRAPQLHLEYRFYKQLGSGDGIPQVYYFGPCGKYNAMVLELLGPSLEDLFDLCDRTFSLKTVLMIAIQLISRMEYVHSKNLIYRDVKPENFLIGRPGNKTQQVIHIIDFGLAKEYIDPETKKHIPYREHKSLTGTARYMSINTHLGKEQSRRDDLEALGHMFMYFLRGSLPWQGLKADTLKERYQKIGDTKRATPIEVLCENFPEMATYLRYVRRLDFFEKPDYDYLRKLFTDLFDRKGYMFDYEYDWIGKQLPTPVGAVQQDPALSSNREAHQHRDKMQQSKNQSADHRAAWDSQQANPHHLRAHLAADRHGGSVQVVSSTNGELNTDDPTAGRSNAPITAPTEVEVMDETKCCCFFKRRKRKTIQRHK

DCAMKL1 = DCAMKL1 (Homo sapiens (Human), UniProt O15075); details: read-out: Percent Control at 100 nM Compound Concentration
EGFR(E746-A750del) = EGFR(E746-A750del) (Homo sapiens (Human), UniProt P00533, DEL746-750); details: read-out: Percent Control at 100 nM Compound Concentration
EGFR(S752-I759del) = EGFR(S752-I759del) (Homo sapiens (Human), UniProt P00533, DEL752-759); details: read-out: Percent Control at 100 nM Compound Concentration
Sequence of EGFR(S752-I759del) (P00533 other isoform, or with tags, fused parts or gaps del S752-I759): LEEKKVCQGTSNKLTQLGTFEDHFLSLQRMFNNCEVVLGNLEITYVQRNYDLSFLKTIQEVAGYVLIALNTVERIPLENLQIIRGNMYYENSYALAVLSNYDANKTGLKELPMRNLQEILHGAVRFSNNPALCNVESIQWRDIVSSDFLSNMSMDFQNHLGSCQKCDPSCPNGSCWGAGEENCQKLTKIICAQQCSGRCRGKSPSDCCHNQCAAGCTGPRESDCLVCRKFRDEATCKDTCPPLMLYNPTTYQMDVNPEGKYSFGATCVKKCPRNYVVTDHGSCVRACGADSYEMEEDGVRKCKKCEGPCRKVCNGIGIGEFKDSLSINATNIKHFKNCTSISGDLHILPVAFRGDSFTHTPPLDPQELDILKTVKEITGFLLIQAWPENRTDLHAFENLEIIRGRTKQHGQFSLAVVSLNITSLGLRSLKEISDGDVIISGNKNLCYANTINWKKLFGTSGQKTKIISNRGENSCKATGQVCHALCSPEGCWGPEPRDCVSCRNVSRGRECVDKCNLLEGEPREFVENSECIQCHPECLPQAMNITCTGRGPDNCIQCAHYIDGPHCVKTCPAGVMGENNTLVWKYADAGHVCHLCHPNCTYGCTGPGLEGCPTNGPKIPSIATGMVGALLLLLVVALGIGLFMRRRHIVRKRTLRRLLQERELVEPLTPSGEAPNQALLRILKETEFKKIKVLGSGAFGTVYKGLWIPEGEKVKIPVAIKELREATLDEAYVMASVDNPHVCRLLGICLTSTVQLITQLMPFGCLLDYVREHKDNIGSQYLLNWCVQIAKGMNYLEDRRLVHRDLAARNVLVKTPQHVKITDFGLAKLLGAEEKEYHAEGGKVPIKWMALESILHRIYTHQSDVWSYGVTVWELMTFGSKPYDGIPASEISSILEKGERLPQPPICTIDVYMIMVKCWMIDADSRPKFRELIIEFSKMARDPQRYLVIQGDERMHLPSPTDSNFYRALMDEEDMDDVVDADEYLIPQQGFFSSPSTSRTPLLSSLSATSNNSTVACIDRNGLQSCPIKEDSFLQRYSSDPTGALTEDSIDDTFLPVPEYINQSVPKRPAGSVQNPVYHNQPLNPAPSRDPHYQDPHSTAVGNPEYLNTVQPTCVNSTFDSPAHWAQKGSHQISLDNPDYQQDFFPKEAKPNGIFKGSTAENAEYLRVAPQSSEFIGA

EPHA3 = EPHA3 (Homo sapiens (Human), UniProt P29320); details: read-out: Percent Control at 100 nM Compound Concentration
EPHB4 = EPHB4 (Homo sapiens (Human), UniProt P54760); details: read-out: Percent Control at 100 nM Compound Concentration
FLT3(ITD,D835V) = system: FLT3(ITD,D835V); set-up: species or system human
FLT3(ITD,F691L) = system: FLT3(ITD,F691L); set-up: species or system human
KIT(D816H) = KIT(D816H) (Homo sapiens (Human), UniProt P10721, D816H); details: read-out: Percent Control at 100 nM Compound Concentration
Sequence of KIT(D816H) (P10721 26-976 D816H): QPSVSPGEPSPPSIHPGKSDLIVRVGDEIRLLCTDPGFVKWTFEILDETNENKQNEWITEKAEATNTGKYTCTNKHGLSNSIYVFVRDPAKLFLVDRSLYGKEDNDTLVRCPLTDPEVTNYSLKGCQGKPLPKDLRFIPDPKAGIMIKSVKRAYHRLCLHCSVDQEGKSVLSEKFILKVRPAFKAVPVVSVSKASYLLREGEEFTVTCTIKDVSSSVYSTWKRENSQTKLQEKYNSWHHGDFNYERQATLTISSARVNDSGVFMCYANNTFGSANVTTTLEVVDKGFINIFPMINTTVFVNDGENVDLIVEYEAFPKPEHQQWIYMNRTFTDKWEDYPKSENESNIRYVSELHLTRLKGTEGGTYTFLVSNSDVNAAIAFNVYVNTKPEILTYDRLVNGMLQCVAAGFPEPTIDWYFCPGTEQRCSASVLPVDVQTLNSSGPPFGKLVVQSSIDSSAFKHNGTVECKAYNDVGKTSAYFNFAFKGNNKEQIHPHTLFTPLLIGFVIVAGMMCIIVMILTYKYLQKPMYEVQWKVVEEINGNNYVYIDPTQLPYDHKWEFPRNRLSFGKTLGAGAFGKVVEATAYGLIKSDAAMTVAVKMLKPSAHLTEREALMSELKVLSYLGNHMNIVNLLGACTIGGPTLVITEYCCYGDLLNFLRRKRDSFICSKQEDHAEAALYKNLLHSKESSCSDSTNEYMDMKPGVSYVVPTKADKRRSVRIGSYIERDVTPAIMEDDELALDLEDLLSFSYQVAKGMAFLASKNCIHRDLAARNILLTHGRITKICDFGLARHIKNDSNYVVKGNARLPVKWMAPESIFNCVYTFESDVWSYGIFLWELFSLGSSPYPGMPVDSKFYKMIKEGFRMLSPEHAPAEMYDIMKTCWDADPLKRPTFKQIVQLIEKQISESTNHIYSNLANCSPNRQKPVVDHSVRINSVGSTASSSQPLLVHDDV

KIT(D816V) = KIT(D816V) (Homo sapiens (Human), UniProt P10721, D816V); details: read-out: Percent Control at 100 nM Compound Concentration
MAP3K2 = MAP3K2 (Homo sapiens (Human), UniProt Q9Y2U5); details: read-out: Percent Control at 100 nM Compound Concentration
Sequence of MAP3K2 (Q9Y2U5 whole entry): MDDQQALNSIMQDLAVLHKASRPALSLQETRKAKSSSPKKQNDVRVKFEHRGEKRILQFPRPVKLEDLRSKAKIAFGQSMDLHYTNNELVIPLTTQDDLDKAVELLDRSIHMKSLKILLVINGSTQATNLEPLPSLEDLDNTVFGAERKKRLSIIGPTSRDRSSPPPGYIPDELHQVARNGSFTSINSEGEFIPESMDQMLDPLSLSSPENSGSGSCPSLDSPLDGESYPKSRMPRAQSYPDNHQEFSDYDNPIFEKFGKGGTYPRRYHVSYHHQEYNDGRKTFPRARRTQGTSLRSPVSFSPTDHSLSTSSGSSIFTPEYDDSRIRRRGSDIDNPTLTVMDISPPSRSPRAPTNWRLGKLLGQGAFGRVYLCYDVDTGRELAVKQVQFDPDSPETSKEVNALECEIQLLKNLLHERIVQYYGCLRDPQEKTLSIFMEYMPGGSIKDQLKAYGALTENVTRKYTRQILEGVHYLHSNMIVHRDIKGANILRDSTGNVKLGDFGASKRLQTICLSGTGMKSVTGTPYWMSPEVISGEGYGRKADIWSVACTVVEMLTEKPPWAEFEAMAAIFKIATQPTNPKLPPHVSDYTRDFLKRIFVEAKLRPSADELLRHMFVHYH

NEK4 = NEK4 (Homo sapiens (Human), UniProt P51957); details: read-out: Percent Control at 100 nM Compound Concentration
NIK = NIK (Homo sapiens (Human), UniProt Q99558); details: read-out: Percent Control at 100 nM Compound Concentration
OSR1 = OSR1 (Homo sapiens (Human), UniProt O95747); details: read-out: Percent Control at 100 nM Compound Concentration
PAK3 = PAK3 (Homo sapiens (Human), UniProt O75914); details: read-out: Percent Control at 100 nM Compound Concentration
PAK6 = PAK6 (Homo sapiens (Human), UniProt Q9NQU5); details: read-out: Percent Control at 100 nM Compound Concentration
PIM1 = PIM1 (Homo sapiens (Human), UniProt P11309); details: read-out: Percent Control at 100 nM Compound Concentration
Sequence of PIM1 (P11309 whole entry): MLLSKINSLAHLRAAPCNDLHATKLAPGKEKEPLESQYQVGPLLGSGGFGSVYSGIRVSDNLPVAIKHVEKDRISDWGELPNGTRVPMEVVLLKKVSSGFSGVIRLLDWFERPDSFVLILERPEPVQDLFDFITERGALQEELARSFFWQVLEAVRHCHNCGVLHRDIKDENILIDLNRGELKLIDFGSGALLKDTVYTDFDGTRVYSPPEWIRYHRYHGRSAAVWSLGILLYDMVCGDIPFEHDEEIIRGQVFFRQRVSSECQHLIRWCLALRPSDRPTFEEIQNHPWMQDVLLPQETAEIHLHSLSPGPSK

PLK1 = PLK1 (Homo sapiens (Human), UniProt P53350); details: read-out: Percent Control at 100 nM Compound Concentration
RIOK2 = RIOK2 (Homo sapiens (Human), UniProt Q9BVS4); details: read-out: Percent Control at 100 nM Compound Concentration
SRMS = SRMS (Homo sapiens (Human), UniProt Q9H3Y6); details: read-out: Percent Control at 100 nM Compound Concentration
TESK1 = TESK1 (Homo sapiens (Human), UniProt Q15569); details: read-out: Percent Control at 100 nM Compound Concentration
Sequence of TESK1 (Q15569 whole entry): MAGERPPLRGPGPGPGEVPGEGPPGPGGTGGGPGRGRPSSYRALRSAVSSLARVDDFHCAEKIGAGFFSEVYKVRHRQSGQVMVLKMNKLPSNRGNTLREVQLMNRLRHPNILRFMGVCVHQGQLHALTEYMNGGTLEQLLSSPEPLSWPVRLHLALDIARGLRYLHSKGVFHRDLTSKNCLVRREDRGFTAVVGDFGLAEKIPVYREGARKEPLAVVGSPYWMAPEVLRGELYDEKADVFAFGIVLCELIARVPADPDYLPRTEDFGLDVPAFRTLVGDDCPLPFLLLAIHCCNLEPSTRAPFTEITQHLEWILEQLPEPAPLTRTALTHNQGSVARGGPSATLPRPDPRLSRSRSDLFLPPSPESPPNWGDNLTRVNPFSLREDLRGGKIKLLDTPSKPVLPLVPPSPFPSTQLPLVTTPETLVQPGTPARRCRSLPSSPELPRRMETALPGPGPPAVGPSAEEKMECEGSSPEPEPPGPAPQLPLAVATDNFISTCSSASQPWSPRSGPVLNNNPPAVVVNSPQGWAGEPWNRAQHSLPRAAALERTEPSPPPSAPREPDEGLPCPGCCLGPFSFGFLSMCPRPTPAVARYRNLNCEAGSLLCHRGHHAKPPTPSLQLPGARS

TSSK1B = TSSK1B (Homo sapiens (Human), UniProt Q9BXA7); details: read-out: Percent Control at 100 nM Compound Concentration

What does the source list for `CN(C[C@@H](O)Cc1ccccc1)C(=O)c1cncc(C#Cc2cnn(C(F)F)c2)c1` [Example 2, (S)-5-((1-(difluoromethyl)-1H-pyrazol-4-yl)ethynyl)-N-(2-hydroxy-3-phenylpropyl)-N-methylnicotinamide]?
remaining activity at 0.1 µM (ACVR1B; ACVR1B): 100%; remaining activity at 0.1 µM (ACVR2A; ACVR2A): 94%; remaining activity at 0.1 µM (ACVR2B; ACVR2B): 91%; remaining activity at 0.1 µM (ALK; ALK): 100%; remaining activity at 0.1 µM (BTK; BTK): 100%; remaining activity at 0.1 µM (CDC2L2; CDC2L2): 100%; remaining activity at 0.1 µM (CSNK1E; CSNK1E): 67%; remaining activity at 0.1 µM (CSNK1G3; CSNK1G3): 99%; remaining activity at 0.1 µM (DCAMKL1; DCAMKL1): 100%; remaining activity at 0.1 µM (EGFR(E746-A750del); EGFR(E746-A750del)): 100%; remaining activity at 0.1 µM (EGFR(S752-I759del); EGFR(S752-I759del)): 100%; remaining activity at 0.1 µM (EPHA3; EPHA3): 100%; remaining activity at 0.1 µM (EPHB4; EPHB4): 100%; Percent Control at 100 nM Compound Concentration (FLT3(ITD,D835V)): 100%; Percent Control at 100 nM Compound Concentration (FLT3(ITD,F691L)): 98%; remaining activity at 0.1 µM (KIT(D816H); KIT(D816H)): 100%; remaining activity at 0.1 µM (KIT(D816V); KIT(D816V)): 100%; remaining activity at 0.1 µM (MAP3K2; MAP3K2): 99%; remaining activity at 0.1 µM (NEK4; NEK4): 100%; remaining activity at 0.1 µM (NIK; NIK): 84%; remaining activity at 0.1 µM (OSR1; OSR1): 88%; remaining activity at 0.1 µM (PAK3; PAK3): 71%; remaining activity at 0.1 µM (PAK6; PAK6): 85%; remaining activity at 0.1 µM (PIM1; PIM1): 98%; remaining activity at 0.1 µM (PLK1; PLK1): 87%; remaining activity at 0.1 µM (RIOK2; RIOK2): 95%; remaining activity at 0.1 µM (SRMS; SRMS): 100%; remaining activity at 0.1 µM (TESK1; TESK1): 100%; remaining activity at 0.1 µM (TSSK1B; TSSK1B): 88%

Which results are given for `CN(C[C@H](Cc1ccccc1)OP(=O)(O)O)C(=O)c1cncc(C#Cc2cnn(C(F)F)c2)c1` [Example 19, (S)-1-(5-((1-(difluoromethyl)-1H-pyrazol-4-yl)ethynyl)-N-methylnicotinamido)-3-phenylpropan-2-yl dihydrogen phosphate]?
remaining activity at 0.1 µM (ACVR1B): 100%; remaining activity at 0.1 µM (ACVR2A): 100%; remaining activity at 0.1 µM (ACVR2B): 99%; remaining activity at 0.1 µM (ALK): 100%; remaining activity at 0.1 µM (BTK): 96%; remaining activity at 0.1 µM (CDC2L2): 100%; remaining activity at 0.1 µM (CSNK1E): 74%; remaining activity at 0.1 µM (CSNK1G3): 100%; remaining activity at 0.1 µM (DCAMKL1): 100%; remaining activity at 0.1 µM (EGFR(E746-A750del)): 94%; remaining activity at 0.1 µM (EGFR(S752-I759del)): 100%; remaining activity at 0.1 µM (EPHA3): 100%; remaining activity at 0.1 µM (EPHB4): 100%; Percent Control at 100 nM Compound Concentration (FLT3(ITD,D835V)): 100%; Percent Control at 100 nM Compound Concentration (FLT3(ITD,F691L)): 97%; remaining activity at 0.1 µM (KIT(D816H)): 98%; remaining activity at 0.1 µM (KIT(D816V)): 100%; remaining activity at 0.1 µM (MAP3K2): 95%; remaining activity at 0.1 µM (NEK4): 100%; remaining activity at 0.1 µM (NIK): 88%; remaining activity at 0.1 µM (OSR1): 89%; remaining activity at 0.1 µM (PAK3): 100%; remaining activity at 0.1 µM (PAK6): 80%; remaining activity at 0.1 µM (PIM1): 100%; remaining activity at 0.1 µM (PLK1): 87%; remaining activity at 0.1 µM (RIOK2): 95%; remaining activity at 0.1 µM (SRMS): 96%; remaining activity at 0.1 µM (TESK1): 100%; remaining activity at 0.1 µM (TSSK1B): 76%
